Results as given in patent publication US8822503B2, “2-pyridone compounds” (Taisho Pharmaceutical Co., Ltd, priority 2009, dated 2014).

Biological target: T1, human liver GK (Homo sapiens, UniProt P35557)
T1 construct: GST (glutathione S-transferase) (N); made in house; host or cells: E. coli
T1 sequence (P35557 1-466 isoform P35557-2): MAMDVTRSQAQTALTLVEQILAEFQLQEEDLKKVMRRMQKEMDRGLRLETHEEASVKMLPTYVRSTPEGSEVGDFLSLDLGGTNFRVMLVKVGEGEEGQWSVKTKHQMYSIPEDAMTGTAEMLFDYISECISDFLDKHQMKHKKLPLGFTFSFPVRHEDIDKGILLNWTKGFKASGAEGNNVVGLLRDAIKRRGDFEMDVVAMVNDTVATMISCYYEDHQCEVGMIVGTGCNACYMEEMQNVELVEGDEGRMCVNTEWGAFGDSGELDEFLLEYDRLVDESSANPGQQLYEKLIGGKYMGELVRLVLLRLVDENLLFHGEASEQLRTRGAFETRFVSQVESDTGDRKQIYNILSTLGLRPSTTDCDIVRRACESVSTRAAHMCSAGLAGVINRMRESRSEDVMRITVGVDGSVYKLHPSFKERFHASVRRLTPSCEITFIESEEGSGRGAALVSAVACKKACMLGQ
Experiment: GK activation test
Assay type: biochemical
Details: test compound concentration needed to activate 50% of maximum activation ability; 4 mM 14C-labeled glucose, 2 mM ATP, room temperature, 20 minutes
Procedure, shortened: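 GST-tagged human liver GK from E. coli (0.24 μg/well) with 4 mM 14C-glucose, 2 mM ATP in Hepes-KOH pH 7.1, KCl, MgCl2, DTT, 1% DMSO, 20 min room temperature. Labeled glucose 6-phosphate captured on anion resin, eluted and counted. EC50 = concentration giving half of maximal activation.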

EC50 [nM]	Compound
500 to 3000	O=C1CC[C@H](/C=C(\c2ccc(Cl)c(OC(F)F)c2)c2ccc(C3CC3)c(=O)[nH]2)N1 [Example 4-130, 6-{(E)-1-[4-Chloro-3-(difluoromethoxy)phenyl]-2-[(2R)-5-oxopyrrolidin-2-yl]ethenyl}-3-cyclopropylpyridin-2(1H)-one]
10 to 500	O=C1CC[C@H](/C=C(/c2ccc(C3CC3)c(=O)[nH]2)c2ccc(C(F)(F)F)cc2F)N1 [Example 4-267, 3-Cyclopropyl-6-{(E)-1-[2-fluoro-4-(trifluoromethyl)phenyl]-2-[(2R)-5-oxopyrrolidin-2-yl]ethenyl}pyridin-2(1H)-one]
500 to 3000	CC(C)(C)c1ccc(/C(=C\[C@H]2CCC(=O)N2)c2cccc(=O)[nH]2)cc1 [Example 4-186, 6-{(E)-1-(4-tert-Butylphenyl)-2-[(2R)-5-oxopyrrolidin-2-yl]ethenyl}pyridin-2(1H)-one]
500 to 3000	CC(C)(C)c1ccc(/C(=C\[C@H]2CCC(=O)N2)c2ccc(CCCc3ccccc3)c(=O)[nH]2)cc1 [Example 4-197, 6-{(E)-1-(4-tert-Butylphenyl)-2-[(2R)-5-oxopyrrolidin-2-yl]ethenyl}-3-(3-phenylpropyl)pyridin-2(1H)-one]
10 to 500	O=C1CC[C@H](/C=C(\c2ccc(OC3CCOCC3)c(Cl)c2)c2ccc(C3CC3)c(=O)[nH]2)N1 [Example 4-143, 6-{(E)-1-[3-Chloro-4-(tetrahydro-2H-pyran-4-yloxy)phenyl]-2-[(2R)-5-oxopyrrolidin-2-yl]ethenyl}-3-cyclopropylpyridin-2(1H)-one]
10 to 500	CCc1ccc(/C(=C\[C@H]2CCC(=O)N2)c2ccc(C3CC3)c(=O)[nH]2)cc1 [Example 4-5, 3-Cyclopropyl-6-{(E)-1-(4-ethylphenyl)-2-[(2R)-5-oxopyrrolidin-2-yl]ethenyl}pyridin-2(1H)-one]
500 to 3000	CSc1ccc(/C(=C\C2CCCC2)c2ccc(C)c(=O)[nH]2)cn1 [Example 1-34, 6-{(E)-2-Cyclopentyl-1-[6-(methylsulfanyl)pyridin-3-yl]ethenyl}-3-methylpyridin-2(1H)-one]
500 to 3000	O=C1CC[C@H](/C=C(\c2cccc(OCCCO)c2)c2ccc(C3CC3)c(=O)[nH]2)N1 [Example 4-8, 3-Cyclopropyl-6-{(E)-1-[3-(3-hydroxypropoxy)phenyl]-2-[(2R)-5-oxopyrrolidin-2-yl]ethenyl}pyridin-2(1H)-one]
500 to 3000	CS(=O)(=O)c1ccc(C(CC2CCCC2)c2ccc(C3CC3)c(=O)[nH]2)cc1 (stereo not drawn) [Example 2-10, 6-{2-Cyclopentyl-1-[4-(methylsulfonyl)phenyl]ethyl}-3-cyclopropylpyridin-2(1H)-one]
3000 to 10000	Cc1ccc([C@@]2(c3ccc(S(C)(=O)=O)cc3)C[C@@H]2C2CCCC2)[nH]c1=O (relative stereo) [Example 3-4, trans-6-{2-Cyclopentyl-1-[4-(methylsulfonyl)phenyl]cyclopropyl}-3-methylpyridin-2(1H)-one]
10 to 500	CCCCCc1ccc(/C(=C/[C@H]2CCC(=O)N2)c2ccc(C(C)(C)C)cc2)[nH]c1=O [Example 4-193, 6-{(E)-1-(4-tert-Butylphenyl)-2-[(2R)-5-oxopyrrolidin-2-yl]ethenyl}-3-pentylpyridin-2(1H)-one]
500 to 3000	CN1CCN(S(=O)(=O)c2ccc(/C(=C\[C@H]3CCC(=O)N3)c3ccc(Cl)c(=O)[nH]3)cc2)CC1 [Example 4-61, 3-Chloro-6-{(E)-1-{4-[(4-methylpiperazin-1-yl)sulfonyl]phenyl}-2-[(2R)-5-oxopyrrolidin-2-yl]ethenyl}pyridin-2(1H)-one]
500 to 3000	O=C1CC[C@H](CC(c2ccc(C3CC3)c(=O)[nH]2)c2ccc(Cl)cc2F)N1 (single isomer, unassigned) [Example 4-334]
500 to 3000	O=c1[nH]c(C(CC2CCCC2)c2ccc(S(=O)(=O)C3CC3)cc2)ccc1Cl (stereo not drawn) [Example 2-25, 3-Chloro-6-{2-cyclopentyl-1-[4-(cyclopropylsulfonyl)phenyl]ethyl}pyridin-2(1H)-one]
500 to 3000	Cc1nc(C)c(-c2ccc(/C(=C/[C@H]3CCC(=O)N3)c3ccc(C(C)(C)C)cc3)[nH]c2=O)s1 [Example 4-181, 6-{(E)-1-(4-tert-Butylphenyl)-2-[(2R)-5-oxopyrrolidin-2-yl]ethenyl}-3-(2,4-dimethyl-1,3-thiazol-5-yl)pyridin-2(1H)-one]
3000 to 10000	CC(C)(C)c1ccc(/C(=C\CN2CCCCCCC2=O)c2ccc(Cl)c(=O)[nH]2)cc1 [Example 6-18, 1-[(2E)-3-(4-tert-Butylphenyl)-3-(5-chloro-6-oxo-1,6-dihydropyridin-2-yl)prop-2-en-1-yl]azocan-2-one]

EC50 [nM]	Compound
10 to 500	CCc1ccc(/C(=C\[C@H]2CCC(=O)C2)c2ccc(C3CC3)c(=O)[nH]2)cc1 [Example 1-58, 3-Cyclopropyl-6-{(E)-1-(4-ethylphenyl)-2-[(1S)-3-oxocyclopentyl]ethenyl}pyridin-2(1H)-one]
10 to 500	Cc1cc(/C(=C\[C@H]2CCC(=O)N2)c2ccc(C3CC3)c(=O)[nH]2)ccc1C(F)F [Example 4-133, 3-Cyclopropyl-6-{(E)-1-[4-(difluoromethyl)-3-methylphenyl]-2-[(2R)-5-oxopyrrolidin-2-yl]ethenyl}pyridin-2(1H)-one]
500 to 3000	CC(C)(C)c1ccc(/C(=C\CN2CCCCC2=O)c2ccc(Cl)c(=O)[nH]2)cc1 [Example 6-4, 6-[(1E)-1-(4-tert-Butylphenyl)-3-(2-oxopiperidin-1-yl)prop-1-en-1-yl]-3-chloropyridin-2(1H)-one]
10 to 500	CCOc1ccc(/C(=C\[C@H]2CCC(=O)N2)c2ccc(C3CC3)c(=O)[nH]2)cc1F [Example 4-284, 3-Cyclopropyl-6-{(E)-1-(4-ethoxy-3-fluorophenyl)-2-[(2R)-5-oxopyrrolidin-2-yl]ethenyl}pyridin-2(1H)-one]
10 to 500	CC(C)Oc1ccc(/C(=C\[C@H]2CCC(=O)N2)c2ccc(C3CC3)c(=O)[nH]2)cc1Cl [Example 4-258, 6-{(E)-1-[3-Chloro-4-(propan-2-yloxy)phenyl]-2-[(2R)-5-oxopyrrolidin-2-yl]ethenyl}-3-cyclopropylpyridin-2(1H)-one]
3000 to 10000	CC(C)(C)c1ccc(C(C[C@H]2CCC(=O)N2)c2ccc(OC(F)F)c(=O)[nH]2)cc1 (single isomer, unassigned) [Example 4-247]
10 to 500	CS(=O)(=O)c1ccc(/C(=C\[C@H]2CCC(=O)C2)c2ccc(C3CC3)c(=O)[nH]2)cc1 [Example 1-108, 3-Cyclopropyl-6-{(E)-1-[4-(methylsulfonyl)phenyl]-2-[(1S)-3-oxocyclopentyl]ethenyl}pyridin-2(1H)-one]
500 to 3000	CC(C)(C)c1ccc(C(C[C@H]2CCC(=O)N2)c2ccc(C(F)(F)F)c(=O)[nH]2)cc1 (single isomer, unassigned) [Example 4-314]
3000 to 10000	O=C1CC[C@H](CC(c2ccc(C(F)(F)F)cc2)c2ccc(C3CC3)c(=O)[nH]2)N1 (single isomer, unassigned) [Example 4-249]
500 to 3000	O=C1CCC(CC(c2ccc(C(F)F)cc2)c2ccc(C3CC3)c(=O)[nH]2)N1 (single isomer, unassigned) [Example 4-340, 3-Cyclopropyl-6-[1-[4-(difluoromethyl)phenyl]-2-(5-oxopyrrolidin-2-yl)ethyl]pyridin-2(1H)-one]
3000 to 10000	COc1cc(F)c(C(C[C@H]2CCC(=O)N2)c2ccc(C3CC3)c(=O)[nH]2)cc1Cl (single isomer, unassigned) [Example 4-347]
3000 to 10000	O=C1CC[C@H](/C=C(\c2ccncc2)c2ccc(C3CC3)c(=O)[nH]2)N1 [Example 4-144, 3-Cyclopropyl-6-[(E)-2-[(2R)-5-oxopyrrolidin-2-yl]-1-(pyridin-4-yl)ethenyl]pyridin-2(1H)-one]
3000 to 10000	CC(C)Oc1ccc(C(C[C@H]2CCC(=O)N2)c2ccc(C3CC3)c(=O)[nH]2)cc1Cl (single isomer, unassigned) [Example 4-323]
500 to 3000	O=C1CCCN1C/C=C(\c1ccc(S(=O)(=O)C2CC2)cc1)c1ccc(Cl)c(=O)[nH]1 [Example 6-20, 3-Chloro-6-[(1E)-1-[4-(cyclopropylsulfonyl)phenyl]-3-(2-oxopyrrolidin-1-yl)prop-1-en-1-yl]pyridin-2(1H)-one]
500 to 3000	CCOc1ccc(/C(=C\[C@H]2CCN(C(C)=O)C2)c2ccc(Cl)c(=O)[nH]2)cc1Cl [Example 4-41, 6-[(E)-2-[(3R)-1-Acetylpyrrolidin-3-yl]-1-(3-chloro-4-ethoxyphenyl)ethenyl]-3-chloropyridin-2(1H)-one]
500 to 3000	O=C1CC[C@H](/C=C(\c2ccc(F)c(Cl)c2)c2ccc(C3CC3)c(=O)[nH]2)N1 [Example 4-104, 6-{(E)-1-(3-Chloro-4-fluorophenyl)-2-[(2R)-5-oxopyrrolidin-2-yl]ethenyl}-3-cyclopropylpyridin-2(1H)-one]

Compound	EC50 [nM]
CCN(CC)CCCCOc1ccc(/C(=C\[C@H]2CCC(=O)C2)c2ccc(C3CC3)c(=O)[nH]2)cc1Cl [Example 1-80, 6-{(E)-1-{3-Chloro-4-[4-(diethylamino)butoxy]phenyl}-2-[(1S)-3-oxocyclopentyl]ethenyl}-3-cyclopropylpyridin-2(1H)-one]	10 to 500
